In patent US20240092756A1, “METHODS AND COMPOSITION FOR KRAS MODIFICATIONS” (2692372 ONTARIO, INC., priority 2020, published 2024):

Target: T1, KRAS G12C (SEQ ID NO:1 or SEQ ID NO:2) (Homo sapiens, UniProt P01116, G12C)
T1 construct: purchased
Assay: Intact mass analysis (LC-MS) of covalent modification, KRAS G12C
Type: binding
Design: key to KRAS G12C Modification: b: KRAS G12C modified
Settings: intact mass spectrometry; covalent modification of KRAS G12C FL
Experimental: The covalent modification of the proteins with the compounds were evaluated using intact mass analysis by liquid chromatography-mass spectrometry instrument (LC-MS/MS).
The reaction solution (20 μL) was prepared in 96-well plate and contained the protein (2 μM), the compound (100 μM), HEPES buffer (20 mM, pH 8), 2% DMSO, 2% glycerol, and 150 mM NaCl. The reaction was allowed to proceed for 24 h at 25° C. The reaction solution (1 μL) was injected into the LC/MS/MS without any further sample preparation.
The LC-MS/MS instrument comprises of a Waters G2-XS quadrupole-time of flight (QTof) mass spectrometer and a Waters Acuity I-class Ultra-High Performance Liquid Chromatography (UPLC) system. The I-class UPLC system includes a binary solvent manager (BSM), and an Acquity sample manager (SM). The mobile phase consisted of: A) 0.1% (v/v) formic acid in MilliQ water; B) 0.1% (v/v) formic acid acetonitrile. Gradients were run over 5 min and proceeded as follows: A:B, 85:15, 0.0-0.7 min, 85:15→15:85, 0.7-1.5 min, 10:90, 1.5-4 min, 10:90→85:15, 4-4.5 min, 85:15, 4.5-5 min. The analytical column was a Waters BEH C4 column 1.7 μm (50×1 mm) column with pore sizes of 300 Å. The TOF MS data was collected in positive ion mode (m/z of 400-2000 Da) using MassLynx software (Waters).
The spectral deconvolution was performed using UNIFI software (Waters). The added mass of the protein upon covalent modification to cysteine residues were specified. Multiple modification of up to 8 cysteine was allowed. All the adducts with signal intensities of <2% of the base peak were ignored. The % modification was calculated as the adduct signal intensity over the total intensities of the protein peaks and the adducts.

T1 sequence (P01116 with tags, fused parts or gaps isoform P01116-2 G12C): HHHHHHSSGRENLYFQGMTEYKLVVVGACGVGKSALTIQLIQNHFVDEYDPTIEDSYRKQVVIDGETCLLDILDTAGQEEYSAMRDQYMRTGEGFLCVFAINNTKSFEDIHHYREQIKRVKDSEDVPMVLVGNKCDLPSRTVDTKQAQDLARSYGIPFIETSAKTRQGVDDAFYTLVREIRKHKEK

| Compound | KRAS G12C Modification |
| --- | --- |
| O=C(COc1ccc(Cl)cc1Cl)N1CCN(S(=O)(=O)c2c(F)c(F)c(F)c(F)c2C(F)(F)F)CC1 [Compound 51A, 2-(2,4-dichlorophenoxy)-1-(4-((2,3,4,5-tetrafluoro-6-(trifluoromethyl)phenyl)sulfonyl)piperazin-1-yl)ethan-1-one] | b |
| O=C(COc1ccc(Cl)cc1Cl)NC1CN(S(=O)(=O)c2c(F)c(F)c(F)c(F)c2F)C1 [Compound 50A, 2-(2,4-dichlorophenoxy)-N-(1-((perfluorophenyl)sulfonyl)azetidin-3-yl)acetamide] | b |
